Earlier results as cited in US20250339403A1, “Tryptamine Formulations and Uses Thereof” (Natural MedTech Pty Ltd, priority 2022, published 2025).
Read-outs that look alike come from different tables or passages of the source.

Experiments:
[1] = weight-to-weight basis
[2] = not given; remark: listed apart in the source
[3] = in vivo
MAO = conditions: after administration

CN(C)CCc1c[nH]c2cccc(O)c12 [Psilocin, 3-[2-(dimethylamino)ethyl]-1H-indol-4-ol]
potency relative to psilocybin [1]: about 1.4 times

CN(C)CCc1c[nH]c2ccccc12 [DMT, N,N-dimethyltryptamine]
psychotropic effects (after oral consumption): not experienced
psychotropic effects (after smoking an equivalent dose): noted
effectiveness (inhaled free-base DMT (0.07-0.28 mg/kg)): have not shown effectiveness
effectiveness (rectally administered (1.7 mg/kg of the bioxalate salt)): have not shown effectiveness
share of recovered compounds that was DMT-N-oxide (DMT-NO) ([2]; after oral administration): 3%
share of recovered compounds that were MAO-dependent IAA ([2]; after oral administration): 97%
unmetabolized DMT in blood samples and urine ([2]; after oral administration): no unmetabolized DMT
share of recovered metabolites that were MAO-dependent IAA ([2]; smoking DMT): 63%

O=C(NCCN1CCOCC1)c1ccc(Cl)cc1 [Moclobemide, 4-chloro-N-(2-morpholin-4-ylethyl)benzamide]
half-life [3]: about 2 hours
time by which inhibition of MAO is completely absent (MAO): ≤ 24 h

COc1ccc2[nH]cc(CCN(C)C)c2c1 [Formulation 5-MeO-DMT, 5-methoxy-N,N-dimethyltryptamine]
amount required to induce hallucinations (inhalation): 6 to 20 mg
amount required to induce hallucinations (intravenous injection): 0.7 to 3.1 mg
amount required to induce hallucinations (oral administration): ~30 mg
amount required to induce hallucinations (sublingual or intranasal insufflation): ~10 mg
